These are literature values, as cited in patent US7199111B2, “Aqueous ifosfamide compositions for parenteral administration and a process for their preparations” (Bharat Serums & Vaccines Ltd., priority 2002, dated 2007).

In one series the test system is mouse. To be noted: intravenous administration, reported.
For series [1] the following is noted: Ifosfamide in water.

With `O=P1(NCCCl)OCCCN1CCCl` (centres unmarked) [Ifosfamide, 3-(2-chloroethyl)-2-[(2-chloroethyl)amino]-tetrahydro-2H-1,3,2-oxazaphosphorin-2-oxide], the LD50 with mouse is given as 338 mg/kg body weight. In addition, in series [1], the water solubility result is on record as “about 100 mg/ml”.
